Among the data in ChEMBL document CHEMBL3994622, “Design and synthesis of new RAF kinase-inhibiting antiproliferative quinoline derivatives. Part 2: Diarylurea derivatives” (Eur J Med Chem, 2017) are growth values, retold here.

What all share (type): functional
For test [1], the system named is Malme-3M. In words: Growth inhibition of human MALME-3M cells assessed as cell growth at 0.03 uM incubated for 48 hrs by sulforhodamine B assay relative to control. The note with it: read-out: Activity. In general terms: The SRB assay estimates cell density from bound dye.
Test [2] relates to MDA-MB-435. The experiment in a line: Growth inhibition of human MDA-MB-435 cells assessed as cell growth at 0.03 uM incubated for 48 hrs by sulforhodamine B assay relative to control. Particulars: MDA-MB-435, 48 h, read-out: Activity.
For test [3], the system named is SNB-75. The experiment in a line: Growth inhibition of human SNB75 cells assessed as cell growth at 0.003 uM incubated for 48 hrs by sulforhodamine B assay relative to control. The note with it: SNB-75, 48 h, read-out: Activity.
The subject of test [4] is UACC-62. The experiment in a line: Growth inhibition of human UACC62 cells assessed as cell growth at 0.03 uM incubated for 48 hrs by sulforhodamine B assay relative to control. Particulars: UACC-62, 48 h, read-out: Activity.
In test [5] the test system is Hs-578T. The experiment in a line: Growth inhibition of human Hs 578T cells assessed as cell growth at 3 uM incubated for 48 hrs by sulforhodamine B assay relative to control. Particulars: read-out: Activity.
The test system of test [6] is KM12. In words: Growth inhibition of human KM12 cells assessed as cell growth at 30 uM incubated for 48 hrs by sulforhodamine B assay relative to control. The note with it: KM12, 48 h, read-out: Activity.
Test [7] deals with HOP-62. In words: Growth inhibition of human HOP62 cells assessed as cell growth at 30 uM incubated for 48 hrs by sulforhodamine B assay relative to control. Particulars: HOP-62, 48 h, read-out: Activity.
Test [8] deals with LOX IMVI. In words: Growth inhibition of human LOXIMVI cells assessed as cell growth at 0.003 uM incubated for 48 hrs by sulforhodamine B assay relative to control. The note with it: read-out: Activity.
Test [9] deals with T47D. In words: Growth inhibition of human T47D cells assessed as cell growth at 50 uM incubated for 48 hrs by sulforhodamine B assay relative to control. The note with it: read-out: Activity.
Test [10] deals with SF-539. In words: Growth inhibition of human SF539 cells assessed as cell growth at 5 uM incubated for 48 hrs by sulforhodamine B assay relative to control. The note with it: SF-539, 48 h, read-out: Activity.
The test system of test [11] is HL-60(TB). The experiment in a line: Growth inhibition of human HL-60(TB) cells assessed as cell growth at 0.05 uM incubated for 48 hrs by sulforhodamine B assay relative to control. The note with it: HL-60, 48 h, read-out: Activity.
For test [12], the system named is M14. The experiment in a line: Growth inhibition of human M14 cells assessed as cell growth at 50 uM incubated for 48 hrs by sulforhodamine B assay relative to control. The note with it: M14, 48 h, read-out: Activity.
In test [13] the test system is DU-145. In words: Growth inhibition of human DU145 cells assessed as cell growth at 50 uM incubated for 48 hrs by sulforhodamine B assay relative to control. Particulars: DU-145, 48 h, read-out: Activity.
Test [14] deals with MOLT-4. In words: Growth inhibition of human MOLT4 cells assessed as cell growth at 50 uM incubated for 48 hrs by sulforhodamine B assay relative to control. Particulars: MOLT-4, 48 h, read-out: Activity.
In test [15] the test system is NCI/ADR-RES. In words: Growth inhibition of human NCI/ADR-RES cells assessed as cell growth at 50 uM incubated for 48 hrs by sulforhodamine B assay relative to control. The note with it: read-out: Activity.
Test [16] has as its system HL-60(TB). In words: Growth inhibition of human HL-60(TB) cells assessed as cell growth at 50 uM incubated for 48 hrs by sulforhodamine B assay relative to control. The note with it: HL-60, 48 h, read-out: Activity.
For test [17], the system named is SK-MEL-5. The experiment in a line: Growth inhibition of human SK-MEL-5 cells assessed as cell growth at 0.5 uM incubated for 48 hrs by sulforhodamine B assay relative to control. Particulars: SK-MEL-5, 48 h, read-out: Activity.
Test [18] deals with HOP-92. The experiment in a line: Growth inhibition of human HOP92 cells assessed as cell growth at 50 uM incubated for 48 hrs by sulforhodamine B assay relative to control. Particulars: HOP-92, 48 h, read-out: Activity.
In test [19] the test system is MCF7. In words: Growth inhibition of human MCF7 cells assessed as cell growth at 0.005 uM incubated for 48 hrs by sulforhodamine B assay relative to control. The note with it: MCF7, 48 h, read-out: Activity.
Test [20] relates to MDA-MB-435. The experiment in a line: Growth inhibition of human MDA-MB-435 cells assessed as cell growth at 50 uM incubated for 48 hrs by sulforhodamine B assay relative to control. Particulars: MDA-MB-435, 48 h, read-out: Activity.
The subject of test [21] is LOX IMVI. In words: Growth inhibition of human LOXIMVI cells assessed as cell growth at 0.5 uM incubated for 48 hrs by sulforhodamine B assay relative to control. Particulars: read-out: Activity.
In test [22] the test system is OVCAR-5. In words: Growth inhibition of human OVCAR5 cells assessed as cell growth at 0.005 uM incubated for 48 hrs by sulforhodamine B assay relative to control. The note with it: OVCAR-5, 48 h, read-out: Activity.
Test [23] deals with NCI/ADR-RES. In words: Growth inhibition of human NCI/ADR-RES cells assessed as cell growth at 0.005 uM incubated for 48 hrs by sulforhodamine B assay relative to control. The note with it: read-out: Activity.
The subject of test [24] is CAKI-1. The experiment in a line: Growth inhibition of human Caki1 cells assessed as cell growth at 5 uM incubated for 48 hrs by sulforhodamine B assay relative to control. Particulars: CAKI-1, 48 h, read-out: Activity.
The subject of test [25] is OVCAR-3. In words: Growth inhibition of human OVCAR3 cells assessed as cell growth at 5 uM incubated for 48 hrs by sulforhodamine B assay relative to control. The note with it: OVCAR-3, 48 h, read-out: Activity.
The subject of test [26] is MDA-MB-231. The experiment in a line: Growth inhibition of human MDA-MB-231 cells assessed as cell growth at 10 uM incubated for 48 hrs by sulforhodamine B assay relative to control. The note with it: MDA-MB-231, 48 h, read-out: Activity.
The subject of test [27] is Hs-578T. The experiment in a line: Growth inhibition of human Hs 578T cells assessed as cell growth at 0.1 uM incubated for 48 hrs by sulforhodamine B assay relative to control. Particulars: read-out: Activity.
Test [28] has as its system NCI-H322M. The experiment in a line: Growth inhibition of human NCI-H322M cells assessed as cell growth at 0.1 uM incubated for 48 hrs by sulforhodamine B assay relative to control. The note with it: read-out: Activity.
The test system of test [29] is U-251. The experiment in a line: Growth inhibition of human U251 cells assessed as cell growth at 0.1 uM incubated for 48 hrs by sulforhodamine B assay relative to control. Particulars: U-251, 48 h, read-out: Activity.
Test [30] concerns SK-MEL-5. The experiment in a line: Growth inhibition of human SK-MEL-5 cells assessed as cell growth at 0.1 uM incubated for 48 hrs by sulforhodamine B assay relative to control. Particulars: SK-MEL-5, 48 h, read-out: Activity.
Test [31] relates to ACHN. The experiment in a line: Growth inhibition of human ACHN cells assessed as cell growth at 1 uM incubated for 48 hrs by sulforhodamine B assay relative to control. The note with it: read-out: Activity.
In test [32] the test system is DU-145. In words: Growth inhibition of human DU145 cells assessed as cell growth at 0.01 uM incubated for 48 hrs by sulforhodamine B assay relative to control. Particulars: DU-145, 48 h, read-out: Activity.
The test system of test [33] is NCI-H226. In words: Growth inhibition of human NCI-H226 cells assessed as cell growth at 10 uM incubated for 48 hrs by sulforhodamine B assay relative to control. Particulars: NCI-H226, 48 h, read-out: Activity.
In test [34] the test system is K562. The experiment in a line: Growth inhibition of human K562 cells assessed as cell growth at 0.1 uM incubated for 48 hrs by sulforhodamine B assay relative to control. Particulars: K562, 48 h, read-out: Activity.
In test [35] the test system is 786-0. In words: Growth inhibition of human 786-0 cells assessed as cell growth at 0.1 uM incubated for 48 hrs by sulforhodamine B assay relative to control. The note with it: 786-0, 48 h, read-out: Activity.

For `Cc1nc2cc(O)c(O)cc2cc1Oc1ccc(NC(=O)Nc2ccc(Cl)c(Cl)c2)cc1`, the results for the growth at 0.03 µM in test [1], in [2] and in test [4] were 101%, 91% and 97%, respectively. The growth at 0.003 µM in test [3] was 80%. In [5], the growth at 3 µM is 100%. For the same compound, the growth at 30 µM in test [6] was -1%.
As for `COc1cc2cc(Oc3ccc(NC(=O)Nc4ccc(Cl)c(C(F)(F)F)c4)cc3)c(C)nc2cc1OC`, the growth at 0.03 µM is 100% in [1], 95% in test [2] and 92% in test [4]. The growth at 30 µM is -96% in test [7] and -84% in test [6]. Moreover, the growth at 0.003 µM is 90% in test [3] and 100% in test [8]. The growth at 3 µM in test [5] is -15%.
On to `COc1cc2cc(Oc3ccc(NC(=O)Nc4cccc(C(F)(F)F)c4)cc3)c(C)nc2cc1OC`, for which the growth at 50 µM in test [9] was -49%; in test [12] it was -61%; in test [13] it was -32%; in test [14], -22%; in test [15], -56%; in [16], -43%. Besides, the growth at 50 µM was -74% in test [18] and -29% in [20]. Moreover, the growth at 5 µM in [10] is 26%; in test [24], -7%; in [25] it was 15%. For the same compound, the growth at 0.05 µM in test [11] is 101%. Further, the growth at 0.5 µM in [17] stood at 93%; in test [21], 97%. Also, the growth at 0.005 µM in test [19] came out at 90%; in test [22], 103%; in test [23], 105%.
As for `COc1cc2cc(Oc3ccc(NC(=O)Nc4ccc(Cl)c(Cl)c4)cc3)c(C)nc2cc1OC`, the results for the growth at 10 µM in test [26] and in test [33] were 8% and -7%, respectively. Further, the growth at 0.1 µM in [27] came to 99%; in [28] it was 103%; in test [29] it was 93%; in test [30], 100%; in [34] it was 107%; in [35], 95%. Further, in test [31], the growth at 1 µM turned out to be 91%. Besides, the growth at 0.01 µM in test [32] turned out to be 109%.
For the compound `COc1cc2cc(Oc3ccc(NC(=O)Nc4cc(C(F)(F)F)cc(C(F)(F)F)c4)cc3)c(C)nc2cc1OC`, the figures for the growth at 10 µM in test [26] and in [33] were -83% and -60%, respectively. Further, the growth at 0.1 µM in test [27] came out at 109%; in test [28], 90%; in [29], 100%; in [30], 101%; in test [34] it was 108%; in [35], 92%. In addition, the growth at 1 µM in test [31] was found to be 17%. In addition, the growth at 0.01 µM in [32] came to 103%.
